Settings: mouse, in vivo

## CCCCCCCCCCCCCCCCCCN1C(=CC=CC=CC=CC2=[N+](CCCCCCCCCCCCCCCCCC)c3ccccc3C2(C)C)C(C)(C)c2ccccc21.[I-] [free DIR, 1,1′-Dioctadecyl-3,3,3′,3′-Tetramethylindotricarbo-cyanine Iodide]
  IR signal in blood after IV injection: no signal was seen

— patent publication US20210369860A1, “FUNCTIONALIZED NANOPARTICLE FORMULATIONS FOR ORAL DRUG DELIVERY” (THE REGENTS OF THE UNIVERSITY OF COLORAD, priority 2018, published 2021)
